From patent US9855245B2, “Methods for improving lipid profiles using atrasentan” (AbbVie Inc., priority 2013, dated 2018)
Marks after values point to notes of the source that are not given here.

Tests used:
[1] = biological target: T1, ETAR (Homo sapiens, UniProt P25101); experiment: Example 6: receptor occupancy data overlaid on edema risk
T1 construct: Instead it rises proportionally across the ETAR receptor occupancy curve
T1 sequence (P25101 21-427): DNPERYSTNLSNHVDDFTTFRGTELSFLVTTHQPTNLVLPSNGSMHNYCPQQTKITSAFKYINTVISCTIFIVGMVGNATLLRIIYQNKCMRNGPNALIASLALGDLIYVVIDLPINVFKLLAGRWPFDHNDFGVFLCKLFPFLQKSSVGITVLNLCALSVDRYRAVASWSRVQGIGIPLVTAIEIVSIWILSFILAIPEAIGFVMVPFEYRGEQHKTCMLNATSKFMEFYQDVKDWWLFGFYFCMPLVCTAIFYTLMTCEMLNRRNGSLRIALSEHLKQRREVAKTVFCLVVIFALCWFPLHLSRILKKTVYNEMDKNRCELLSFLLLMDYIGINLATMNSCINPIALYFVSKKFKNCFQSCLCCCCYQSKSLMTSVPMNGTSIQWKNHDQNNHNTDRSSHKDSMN

[2] = system: subjects with type 2 diabetes and nephropathy; experiment: Example 2: Phase 2b randomized, double-blind, placebo-controlled 12-week study conducted in Japan; conditions: for Any adverse event / Any adverse event leading to discontinuation of study drug / Death / Fatal adverse event / Possibly or probably drug-related adverse event / Serious adverse event / Severe adverse event: N = 19
Description: The primary efficacy endpoint in this study was the change from Baseline to Week 12 in log-transformed UACR with the primary analysis conducted using MMRM with fixed effects for treatment, visit, and treatment-by-visit interaction, with baseline measurement and baseline-by-visit interaction as covariates.
All safety analyses were performed on treatment-emergent adverse events only. Treatment-emergent adverse events were defined as those that first occurred or worsened on or after the date of first dose of study drug through 30 days after the last dose of study drug.

[3] = 0.75 mg/day, baseline to final on-treatment measurement

CCCCN(CCCC)C(=O)CN1C[C@H](c2ccc3c(c2)OCO3)[C@@H](C(=O)O)[C@@H]1c1ccc(OC)cc1 [Atrasentan, (2R,3R,4S)-4-(1,3-benzodioxol-5-yl)-1-[2-(dibutylamino)-2-oxoethyl]-2-(4-methoxyphenyl)pyrrolidine-3-carboxylic acid]
Receptor Occupancy ([1]; Dose 0.25 mg): 25%
Receptor Occupancy ([1]; Dose 0.75 mg): 47%
Receptor Occupancy ([1]; Dose 1.75 mg): 67%
Any adverse event ([2]; 0.75 mg): 17 (89.5) N (%) of Subjects
Any adverse event leading to discontinuation of study drug ([2]; 0.75 mg): 1 (5.3) N (%) of Subjects
Death ([2]; 0.75 mg): 0 N (%) of Subjects
Fatal adverse event ([2]; 0.75 mg): 0 N (%) of Subjects
Possibly or probably drug-related adverse event ([2]; 0.75 mg): 7 (36.8) N (%) of Subjects
Serious adverse event ([2]; 0.75 mg): 3 (15.8) N (%) of Subjects
Severe adverse event ([2]; 0.75 mg): 1 (5.3) N (%) of Subjects
Cholesterol, Difference (95% CI) from placebo ([2]; 0.75 mg/day): −26.1 (−42.77, −9.33) mg/dL
Cholesterol, Final On-Treatment Visit Mean (SD) ([2]; 0.75 mg/day): 173.5 (30.52) mg/dL
Cholesterol, LS Mean Change from Baseline (SE) ([2]; 0.75 mg/day): −28.0 (5.27) mg/dL
HDL-C, Difference (95% CI) from placebo ([2]; 0.75 mg/day): −1.0 (−6.89, 4.91) mg/dL
HDL-C, Final On-Treatment Visit Mean (SD) ([2]; 0.75 mg/day): 48.8 (12.65) mg/dL
HDL-C, LS Mean Change from Baseline (SE) ([2]; 0.75 mg/day): −2.8 (1.86) mg/dL
Had ≧30% Reduction in UACR and No Edema (no moderate or severe adverse event of edema) ([2]; 0.75 mg/day): 8 (42.1) Number (%) of Subjects
Hemoglobin, Difference (95% CI) from placebo ([2]; 0.75 mg/day): −1.22 (−1.863, −0.586) g/dL
Hemoglobin, Final On-Treatment Visit Mean (SD) ([2]; 0.75 mg/day): 11.74 (1.963) g/dL
LDL-C, Difference (95% CI) from placebo ([2]; 0.75 mg/day): −19.4 (−33.56, −5.30) mg/dL
LDL-C, Final On-Treatment Visit Mean (SD) ([2]; 0.75 mg/day): 94.4 (29.10) mg/dL
LDL-C, LS Mean Change from Baseline (SE) ([2]; 0.75 mg/day): −18.6 (4.45) mg/dL
Percentage of Subjects with ≧30% Reduction in Log-Transformed UACR from Baseline to Final Measurement ([2]; 0.75 mg/day): 52.6%
Percentage of Subjects with ≧40% Reduction in Log-Transformed UACR from Baseline to Final Measurement ([2]; 0.75 mg/day): 31.6%
Percentage of Subjects with ≧50% Reduction in Log-Transformed UACR from Baseline to Final Measurement ([2]; 0.75 mg/day): 21.1%
Triglycerides, Difference (95% CI) from placebo ([2]; 0.75 mg/day): −32.9 (−74.44, 8.66) mg/dL
Triglycerides, Final On-Treatment Visit Mean (SD) ([2]; 0.75 mg/day): 148.1 (64.63) mg/dL
Triglycerides, LS Mean Change from Baseline (SE) ([2]; 0.75 mg/day): −28.8 (50.42) mg/dL
Weight, Difference (95% CI) from placebo ([2]; 0.75 mg/day): 0.1 (−1.13, 1.36) kg
Weight, Final On-Treatment Visit Mean (SD) ([2]; 0.75 mg/day): 69.4 (13.26) kg
fatigue leading to discontinuation ([2]; 0.75 mg/day): 1.7%
geometric mean reduction in UACR, baseline to final on-treatment measurement ([2]; 0.75 mg/day): 31.44%
incidence of peripheral edema ([2]; 0.75 mg/day): 21.1%
mean (non-ambulatory) diastolic blood pressure change from baseline to last on-treatment visit ([2]; 0.75 mg/day): −5.74 mmHg
mean ambulatory diastolic blood pressure change from baseline to Week 10 ([2]; 0.75 mg/day): −6.0 mmHg
mean ambulatory systolic blood pressure change from baseline to Week 10 ([2]; 0.75 mg/day): −5.1 mmHg
mean duration of edema ([2]; 0.75 mg/day): 38.2 days
peripheral edema leading to discontinuation ([2]; 0.75 mg/day): 3.4%
subjects discontinued from the study ([2]; 0.75 mg/day): 10.5%
subjects who discontinued study drug because of adverse events ([2]; 0.75 mg/day): 5.3%
UACR Between-group Comparison Difference (95% CI) ([2]; 0.75 mg/day vs placebo): −0.41 (−0.69, −0.13)
mean eGFR, difference between atrasentan and placebo ([2]; 0.75 mg/day, Week 10): statistically significant
Weight, LS Mean Change from Baseline (SE) ([2]; 0.75 mg/day, Week 12): 0.2 (0.45) kg
UACR Change from Baseline LS Mean (SE) [2, 3]: −0.38 (0.10) log mg/g creatinine
UACR Geometric Mean Change (Percent) [2, 3]: −31.44%
mean (non-ambulatory) systolic blood pressure change from baseline to last on-treatment visit ([2]; 0.75 mg/day, increased): 1.93 mmHg
Any adverse event ([2]; 1.25 mg): 14 (73.7) N (%) of Subjects
Any adverse event leading to discontinuation of study drug ([2]; 1.25 mg): 5 (26.3)* N (%) of Subjects
Death ([2]; 1.25 mg): 0 N (%) of Subjects
Fatal adverse event ([2]; 1.25 mg): 0 N (%) of Subjects
Possibly or probably drug-related adverse event ([2]; 1.25 mg): 10 (52.6) N (%) of Subjects
Serious adverse event ([2]; 1.25 mg): 2 (10.5) N (%) of Subjects
Severe adverse event ([2]; 1.25 mg): 1 (5.3) N (%) of Subjects
Cholesterol, Difference (95% CI) from placebo ([2]; 1.25 mg/day): −25.0 (−41.95, −8.04) mg/dL
Cholesterol, Final On-Treatment Visit Mean (SD) ([2]; 1.25 mg/day): 169.6 (37.60) mg/dL
Cholesterol, LS Mean Change from Baseline (SE) ([2]; 1.25 mg/day): −26.9 (5.41) mg/dL
